From PubChem BioAssay (NCI)
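Five concentrations, 48 hours, 96-well plates. TGI denotes the concentration required for complete inhibition of growth.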 Where a SMILES comes first, the peptide text is derived from it. The star is where a group is joined. Boc = CC(C)(C)OC(=O)*; OBn = c1ccc(CO*)cc1

Assays:
Assay in all cases: NCI-60 cell line screen, 48 h
NCI-H226 lung = system: NCI-H226 lung
SF-268 CNS = system: SF-268 CNS
A549 NSCLC = system: A549 NSCLC
IGROV1 ovarian = system: IGROV1 ovarian
LOX IMVI melanoma = system: LOX IMVI melanoma
BT-549 breast = system: BT-549 breast
MDA-MB-435 = system: MDA-MB-435
NCI-H522 lung = system: NCI-H522 lung
HCC-2998 colon = system: HCC-2998 colon
MALME-3M melanoma = system: MALME-3M melanoma

Row | Compound | TGI (NCI-H226 lung) [µM] | TGI (SF-268 CNS) [µM] | TGI (A549 NSCLC) [µM] | TGI (IGROV1 ovarian) [µM] | TGI (LOX IMVI melanoma) [µM] | TGI (BT-549 breast) [µM] | TGI (MDA-MB-435) [µM] | TGI (NCI-H522 lung) [µM] | TGI (HCC-2998 colon) [µM] | TGI (MALME-3M melanoma) [µM]
1 | CC(=O)OC1OC(c2ccoc2)C[C@@]12C1CCC3O[C@]3(C)[C@]1(C)C[C@H](OC(C)=O)[C@H]2C (some centres undefined) | > 75 | > 75 | > 75 | > 75 | > 75 | > 75 | > 75 | > 75 | > 75 | –
2 | CC(C)CC(NC(=O)C(Cc1ccccc1)NC(=O)C(Cc1ccccc1)NC(=O)OC(C)(C)C)C(=O)OCc1ccccc1 (stereo not drawn) (Boc-Phe-Phe-Leu-OBn; configuration not given here) | > 100 | > 100 | > 100 | > 100 | > 100 | > 100 | > 100 | > 100 | – | > 100
3 | CCCCS(=O)CC(CO)NC(=O)/C=C/c1c(C)[nH]c(=O)[nH]c1=O (centres undefined) | 34 | 20.8 | 87.1 | 35.4 | 40.9 | – | – | 21.4 | 30 | 14.6
4 | COC(=O)C1=COc2c(n(C)c3ccccc23)-c2ccccc21 | > 100 | > 100 | – | > 100 | > 100 | > 100 | > 100 | – | – | > 100
5 | C=CCN1C[C@@H](C)N([C@@H](c2ccc(C(=O)N(CC)CC)cc2)c2cccc(OC)c2)C[C@@H]1C | > 100 | > 100 | > 100 | > 100 | > 100 | > 100 | > 100 | > 100 | – | > 100
6 | NC(=O)CNC(=O)[C@@H]1C[C@@H](OCCC(=O)O)CN1C(=O)OCc1ccccc1 | > 100 | > 100 | > 100 | > 100 | > 100 | > 100 | > 100 | > 100 | – | > 100
7 | CCN(CC)CC(=O)Nc1ccc2c(c1)C(=O)c1ccc(NC(=O)CN(CC)CC)cc1C2=O | – | 82.7 | > 100 | 51.6 | 34.5 | – | – | 43.2 | > 100 | –
8 | COc1cc2cc3c4c(cc(OC)c(OC)c4c2cc1OC)CCN3C(=O)CCC(=O)O | > 100 | > 100 | > 100 | > 100 | > 100 | – | – | > 100 | > 100 | > 100
9 | Cc1ccc(C)c(COCCOCn2c(=O)[nH]c(=O)c3cc(Br)ccc32)c1 | > 100 | > 100 | > 100 | > 100 | > 100 | – | > 100 | > 100 | > 100 | > 100
10 | O=C1CCCN1CCCN=c1cc2n(-c3ccc(Cl)cc3)c3ccccc3nc-2cc1Nc1ccc(Cl)cc1 | 32.3 | > 100 | 35.3 | 24.9 | 28.2 | – | – | 16.6 | 18.1 | 38.3
11 | COc1ccc(-c2nc3c(nc2-c2ccc(OC)cc2)N(C)S(=O)(=O)N=C3N)cc1 | – | > 100 | > 100 | > 100 | 29.9 | – | – | 36 | > 100 | 58.8
